Reference: ChEMBL document CHEMBL1127644, “Design of orally active, non-peptidic inhibitors of human leukocyte elastase” (J Med Chem, 1994)
Calls of active or inactive are those of the source. The rule behind the calls is not given here.

Key:
Cricetinae gen. sp. [1] = assay: Inhibition of Human Leukocyte Elastase (HLE) induced lung hemorrhage in hamster at an oral dose of 2.5 mg/kg; type: functional, Cricetulus griseus
[2] = Bioavailability was evaluated in dog; type: ADME, organism-based, Canis lupus familiaris; conditions: in vivo, read-out: Bioavailabiility
[3] = Bioavailability in rat; type: ADME, organism-based; conditions: in vivo, read-out: Bioavailabiility
Cricetinae gen. sp. [4] = assay: The compound was evaluated for effective dose after oral dosing; type: functional, Cricetulus griseus
[5] = Bioavailability was evaluated in hamster; type: ADME, organism-based; conditions: cricetinae, in vivo; read-out: Bioavailabiility
Cricetinae gen. sp. [6] = assay: Inhibition of Human Leukocyte Elastase (HLE) induced lung hemorrhage in hamster at an oral dose of 20 mg/kg; type: functional, Cricetulus griseus
[7] = Partition coefficient (logP); type: physicochemical; conditions: octanol/water
Cricetinae gen. sp. [8] = assay: Inhibition of Human Leukocyte Elastase (HLE) induced lung hemorrhage in hamster at an oral dose of 20 mg/kg; […]; type: functional, organism-based; set-up: dose 20 mg/kg; conditions: Cricetulus griseus

SMILES: CC(C)C(NC(=O)Cn1c(-c2ccc(F)cc2)ncc(N)c1=O)C(=O)C(F)(F)F (stereo not given)
- inhibition in vivo at 2.5 mg/kg (Cricetinae gen. sp. [1]): 43%
- bioavailability [2]: 88%
- bioavailability [3]: 62%
- ED50 (Cricetinae gen. sp. [4]): 7.5 mg/kg
- bioavailability [5]: 77%

SMILES: CC(C)C(NC(=O)Cn1c(-c2ccc(F)cc2)ncc(NC(=O)OCc2ccccc2)c1=O)C(=O)C(F)(F)F (stereo not given)
- inhibition in vivo at 20 mg/kg (Cricetinae gen. sp. [6]): 63%

SMILES: COC(=O)Nc1cnc(-c2ccc(F)cc2)n(CC(=O)NC(C(=O)C(F)(F)F)C(C)C)c1=O (stereo not given)
- inhibition in vivo at 2.5 mg/kg (Cricetinae gen. sp. [1]): 39%

SMILES: CC(C)C(NC(=O)Cn1c(-c2ccccc2)ccc(NC(=O)OCc2ccccc2)c1=O)C(=O)C(F)(F)F (stereo not given)
- logP [7]: > 4
- inhibition (Cricetinae gen. sp. [8]): inactive

SMILES: CC(C)C(NC(=O)Cn1c(-c2ccccc2)ccc(NC(=O)OCc2ccc(C(=O)O)cc2)c1=O)C(=O)C(F)(F)F (stereo not given)
- inhibition (Cricetinae gen. sp. [8]): inactive
